# Source: patent publication US10525017B2, “Composition containing meso-2,3-butanediol” (Amorepacific Corporation, priority 2014, dated 2020)
# How the values were obtained:
# [1] = Skin irritation test, 24 h patch test; format: in vivo, human
# Experimental: In order to evaluate the skin safety of a human body on 1,3-butanediol, 1,2-butanediol and 1,2-hexanediol (conventionally used diol), which are similar to meso-2,3-butanediol, S,S-2,3-butanediol and R,R-2,3-butanediol that are stereoisomers of 2,3-butanediol except that the position of a hydroxy group is different, the patch test was carried out for 24 hours. The patch was attached to the upper part of the subject's back, and 20 μl of the prepared test substance was applied to the patch using an IQ chamber (chemotechique, Sweeden). The patch was attached and after the lapse of 24 hours, the patch was removed. After removal of the patch, the first reading was performed after 30 minutes, and the second reading was performed after 24 hours.
# In order to investigate the intensity of the skin irritation of the samples, weighting values were given according to the degree of positive reaction of the skin, skin average reactivity was determined, and the skin irritation of the sample was judged. The skin average reactivity was calculated using the mathematical formula 1 below, and the determination criteria are as shown in Table 5 below.
# [2] = system: Pseudomonas aeruginosa (ATCC 9027); assay: Antibacterial activity test (MIC); format: cell-based; details: broth culture, 25 to 32° C., 24 to 72 hours; tested 0.01 to 10% (v/v)
# Experimental: (§1) In order to compare the antibacterial activities by the position and stereoscopic orientation of the hydroxyl group of the diol, the antibacterial activities (minimum inhibitory concentration, MIC) against the samples described in Table 1 below, that is, six kinds of diols such as 1,3-butanediol, were measured.
# (§2) The antibacterial activity measurement tests were performed using bacteria, yeasts and molds, such as Escherichia coli (ATCC 8739), Pseudomonas aeruginosa (ATCC 9027), Staphylococcus aureus (ATCC 6538), Candida albicans (ATCC 10231), and Aspergillus niger; (ATCC 16404). Respective substances or the like were added to Tryptic Soy broth and Sabouraud Dextrose (SD) broth at a concentration of 0.01 to 10% (v/v), the culture solution was prepared in a liquid phase, and the bacteria, yeasts, and molds were inoculated, and then cultured at 25 to 32° C. for 24 to 72 hours to observe the state of the bacteria.
# [3] = system: Staphylococcus aureus (ATCC 6538); assay: Antibacterial activity test (MIC); format: cell-based; details: broth culture, 25 to 32° C., 24 to 72 hours; tested 0.01 to 10% (v/v)
# Experimental: as §1, §2
# [4] = system: Aspergillus niger (ATCC 16404); assay: Antibacterial activity test (MIC); format: cell-based; details: broth culture, 25 to 32° C., 24 to 72 hours; tested 0.01 to 10% (v/v)
# Experimental: as §1, §2
# [5] = system: Escherichia coli (ATCC 8739); assay: Antibacterial activity test (MIC); format: cell-based; details: broth culture, 25 to 32° C., 24 to 72 hours; tested 0.01 to 10% (v/v)
# Experimental: as §1, §2
# [6] = system: Candida albicans (ATCC 10231); assay: Antibacterial activity test (MIC); format: cell-based; details: broth culture, 25 to 32° C., 24 to 72 hours; tested 0.01 to 10% (v/v)
# Experimental: as §1, §2
# [7] = Content 30%, 20 μl, 24 h patch on back, less than 1 = no irritation, 1-3 mild, 3-5 moderate
smiles,measurement,setting,value
"CCCCC(O)CO (stereo not shown) [1,2-hexanediol]",Skin irritation Score (skin average reactivity),"[1]; human, in vivo, 24 h, 20 %",2.54
same,"minimum inhibitory concentration, MIC, P. aeruginosa",[2],1.25 % (v/v)
same,"minimum inhibitory concentration, MIC, S. aureus",[3],2.5 % (v/v)
same,"minimum inhibitory concentration, MIC, A. niger",[4],0.625 % (v/v)
same,"minimum inhibitory concentration, MIC, E. coli",[5],1.25 % (v/v)
same,"minimum inhibitory concentration, MIC, C. albicans",[6],1.25 % (v/v)
"C[C@H](O)[C@H](C)O [S,S-2,3-butanediol]",Skin irritation Score (skin average reactivity),"[1]; human, in vivo, 24 h, 30 %",2.12
same,"minimum inhibitory concentration, MIC, P. aeruginosa",[2],5 % (v/v)
same,"minimum inhibitory concentration, MIC, S. aureus",[3],2.5 % (v/v)
same,"minimum inhibitory concentration, MIC, A. niger",[4],1.25 % (v/v)
same,"minimum inhibitory concentration, MIC, E. coli",[5],5 % (v/v)
same,"minimum inhibitory concentration, MIC, C. albicans",[6],5 % (v/v)
"C[C@@H](O)[C@@H](C)O [R,R-2,3-butanediol]",Skin irritation Score (skin average reactivity),"[1]; human, in vivo, 24 h, 30 %",1.45
same,"minimum inhibitory concentration, MIC, P. aeruginosa",[2],5 % (v/v)
same,"minimum inhibitory concentration, MIC, S. aureus",[3],10 % (v/v)
same,"minimum inhibitory concentration, MIC, A. niger",[4],5 % (v/v)
same,"minimum inhibitory concentration, MIC, E. coli",[5],2.5 % (v/v)
same,"minimum inhibitory concentration, MIC, C. albicans",[6],5 % (v/v)
"CCC(O)CO (stereo not shown) [1,2-butanediol]",Skin irritation Score (skin average reactivity),[1]; [7],2.48
same,"minimum inhibitory concentration, MIC, P. aeruginosa",[2],2.5 % (v/v)
same,"minimum inhibitory concentration, MIC, S. aureus",[3],1.25 % (v/v)
same,"minimum inhibitory concentration, MIC, A. niger",[4],2.5 % (v/v)
same,"minimum inhibitory concentration, MIC, E. coli",[5],5 % (v/v)
same,"minimum inhibitory concentration, MIC, C. albicans",[6],5 % (v/v)
"C[C@H](O)[C@@H](C)O [Meso-2,3-butanediol, meso-2,3-butanediol]",Skin irritation Score (skin average reactivity),"[1]; human, in vivo, 24 h, 30 %",0.41
same,"numerical value of skin irritation, in words",[1]; in vivo,lower
same,"minimum inhibitory concentration, MIC, P. aeruginosa",[2],2.5 % (v/v)
same,"minimum inhibitory concentration, MIC, S. aureus",[3],5 % (v/v)
same,"minimum inhibitory concentration, MIC, A. niger",[4],1.25 % (v/v)
same,"minimum inhibitory concentration, MIC, E. coli",[5],1.25 % (v/v)
same,"minimum inhibitory concentration, MIC, C. albicans",[6],2.5 % (v/v)
"CC(O)CCO (stereo not shown) [1,3-butanediol]",Skin irritation Score (skin average reactivity),[1]; [7],0.52
same,"minimum inhibitory concentration, MIC, P. aeruginosa",[2],>10 % (v/v)
same,"minimum inhibitory concentration, MIC, S. aureus",[3],>10 % (v/v)
same,"minimum inhibitory concentration, MIC, A. niger",[4],>10 % (v/v)
same,"minimum inhibitory concentration, MIC, E. coli",[5],>10 % (v/v)
same,"minimum inhibitory concentration, MIC, C. albicans",[6],>10 % (v/v)
